Columns and labels:
Type in all cases: in vivo
[1] = test system: Abutilon theophrasti (ABUTH); assay: Post-emergence herbicidal action, greenhouse pot test
Protocol: (§1) Seeds of monocotyledonous and dicotyledonous weeds and crop plants were placed in sandy loam in plastic or wood-fibre pots, covered with soil and cultivated in a greenhouse under controlled growth conditions. 2 to 3 weeks after sowing, the test plants were treated at the one-leaf stage. The compounds of the invention, formulated in the form of wettable powders (WP) or as emulsion concentrates (EC), were then sprayed onto the green parts of the plants as aqueous suspension or emulsion with addition of 0.5% additive at a water application rate of 600 l/ha (converted). After the test plants had been kept in the greenhouse under optimum growth conditions for about 3 weeks, the activity of the preparations was rated visually in comparison to untreated controls. For example, 100% activity=the plants have died, 0% activity=like control plants.

[2] = test system: Alopecurus myosuroides (ALOMY); assay: as above
Protocol: as §1

[3] = test system: Amaranthus retroflexus (AMARE); assay: as above
Protocol: as §1

Bassia scoparia (KCHSC) = assay: as above
Protocol: as §1

[4] = test system: Digitaria sanguinalis (DIGSA); assay: as above
Protocol: as §1

[5] = test system: Echinochloa crus-galli (ECHCG); assay: as above
Protocol: as §1

Lolium rigidum (LOLRI) = assay: as above
Protocol: as §1

[6] = test system: Pharbitis purpurea (PHBPU); assay: as above
Protocol: as §1

[7] = test system: Polygonum convolvulus (POLCO); assay: as above
Protocol: as §1

Setaria viridis (SETVI) = assay: as above
Protocol: as §1

[8] = test system: Tripleurospermum inodorum (MATIN); assay: as above
Protocol: as §1

Veronica persica (VERPE) = assay: as above
Protocol: as §1

Viola tricolor (VIOTR) = assay: as above
Protocol: as §1

[9] = test system: Triticum aestivum (TRZAS); assay: Post-emergence crop plant compatibility, greenhouse pot test; conditions: crop plant, post-emergence, 1.25 g/ha
Protocol: as §1
The observed effects on selected crop plants are reported here in comparison to the untreated controls (values in %).

SMILES	Post-emergence effect at 5 g/ha against ABUTH in % [1] [%]	Post-emergence effect at 20 g/ha against ABUTH in % [1] [%]	Post-emergence effect at 5 g/ha against ALOMY in % [2] [%]	Post-emergence effect at 20 g/ha against ALOMY in % [2] [%]	Post-emergence effect at 1.25 g/ha against AMARE in % [3] [%]	Post-emergence effect at 5 g/ha against AMARE in % [3] [%]	Post-emergence effect at 20 g/ha against AMARE in % [3] [%]	Post-emergence effect at 1.25 g/ha against KCHSC in % (Bassia scoparia (KCHSC)) [%]	Post-emergence effect at 5 g/ha against KCHSC in % (Bassia scoparia (KCHSC)) [%]	Post-emergence effect at 20 g/ha against KCHSC in % (Bassia scoparia (KCHSC)) [%]	Post-emergence effect at 5 g/ha against DIGSA in % [4] [%]	Post-emergence effect at 20 g/ha against DIGSA in % [4] [%]	Post-emergence effect at 5 g/ha against ECHCG in % [5] [%]	Post-emergence effect at 20 g/ha against ECHCG in % [5] [%]	Post-emergence effect at 20 g/ha against LOLRI in % (Lolium rigidum (LOLRI)) [%]	Post-emergence effect at 5 g/ha against PHBPU in % [6] [%]	Post-emergence effect at 20 g/ha against PHBPU in % [6] [%]	Post-emergence effect at 5 g/ha against POLCO in % [7] [%]	Post-emergence effect at 20 g/ha against POLCO in % [7] [%]	Post-emergence effect at 1.25 g/ha against SETVI in % (Setaria viridis (SETVI)) [%]	other results
Cn1c(C(F)(F)F)cc(=O)n(-c2cc(Oc3ccccc3OCC(=O)OCC3(F)CC3)c(Cl)cc2F)c1=O [I.7-6]	100	100	100	100	100	100	100	100	100	100	100	100	100	100	80	100	100	100	100	100	Post-emergence effect at 1.25 g/ha against ABUTH in % [1]: 100%; Post-emergence effect at 1.25 g/ha against ALOMY in % ([2]; 1.25 g/ha): 80%; Post-emergence effect at 1.25 g/ha against DIGSA in % [4]: 100%; Post-emergence effect at 5 g/ha against SETVI in % (Setaria viridis (SETVI)): 100%; Post-emergence effect at 20 g/ha against SETVI in % (Setaria viridis (SETVI)): 100%; Post-emergence effect at 20 g/ha against MATIN in % [8]: 100%; Post-emergence effect at 1.25 g/ha against VERPE in % (Veronica persica (VERPE)): 100%; Post-emergence effect at 5 g/ha against VERPE in % (Veronica persica (VERPE)): 100%; Post-emergence effect at 20 g/ha against VERPE in % (Veronica persica (VERPE)): 100%; Post-emergence effect at 1.25 g/ha against VIOTR in % (Viola tricolor (VIOTR)): 100%; Post-emergence effect at 5 g/ha against VIOTR in % (Viola tricolor (VIOTR)): 100%; Post-emergence effect at 20 g/ha against VIOTR in % (Viola tricolor (VIOTR)): 100%; Post-emergence effect at 1.25 g/ha against TRZAS in % [9]: 20%
Cn1c(C(F)(F)F)cc(=O)n(-c2cc(Oc3ccccc3OCC(=O)OCC3(C#N)CC3)c(Cl)cc2F)c1=O [I.7-7]	100	100	80	100	100	100	100	100	100	100	100	100	100	100	100	100	100	100	100	100	Post-emergence effect at 1.25 g/ha against PHBPU in % [6]: 100%; Post-emergence effect at 5 g/ha against SETVI in % (Setaria viridis (SETVI)): 100%; Post-emergence effect at 20 g/ha against SETVI in % (Setaria viridis (SETVI)): 100%; Post-emergence effect at 5 g/ha against MATIN in % [8]: 100%; Post-emergence effect at 20 g/ha against MATIN in % [8]: 100%; Post-emergence effect at 1.25 g/ha against VERPE in % (Veronica persica (VERPE)): 100%; Post-emergence effect at 5 g/ha against VERPE in % (Veronica persica (VERPE)): 100%; Post-emergence effect at 20 g/ha against VERPE in % (Veronica persica (VERPE)): 100%; Post-emergence effect at 1.25 g/ha against VIOTR in % (Viola tricolor (VIOTR)): 100%; Post-emergence effect at 5 g/ha against VIOTR in % (Viola tricolor (VIOTR)): 100%; Post-emergence effect at 20 g/ha against VIOTR in % (Viola tricolor (VIOTR)): 100%; Post-emergence effect at 1.25 g/ha against TRZAS in % [9]: 10%
Cn1c(C(F)(F)F)cc(=O)n(-c2cc(Oc3ccccc3OCC(=O)OCC3CC3(F)F)c(Cl)cc2F)c1=O (stereo not drawn) [I.7-8]	100	100	80	100	100	100	100	100	100	100	100	100	100	100	80	100	100	100	100	100	Post-emergence effect at 1.25 g/ha against ABUTH in % [1]: 100%; Post-emergence effect at 1.25 g/ha against DIGSA in % [4]: 100%; Post-emergence effect at 1.25 g/ha against PHBPU in % [6]: 80%; Post-emergence effect at 5 g/ha against SETVI in % (Setaria viridis (SETVI)): 100%; Post-emergence effect at 20 g/ha against SETVI in % (Setaria viridis (SETVI)): 100%; Post-emergence effect at 5 g/ha against MATIN in % [8]: 100%; Post-emergence effect at 20 g/ha against MATIN in % [8]: 100%; Post-emergence effect at 1.25 g/ha against VERPE in % (Veronica persica (VERPE)): 100%; Post-emergence effect at 5 g/ha against VERPE in % (Veronica persica (VERPE)): 100%; Post-emergence effect at 20 g/ha against VERPE in % (Veronica persica (VERPE)): 100%; Post-emergence effect at 1.25 g/ha against VIOTR in % (Viola tricolor (VIOTR)): 100%; Post-emergence effect at 5 g/ha against VIOTR in % (Viola tricolor (VIOTR)): 100%; Post-emergence effect at 20 g/ha against VIOTR in % (Viola tricolor (VIOTR)): 100%; Post-emergence effect at 1.25 g/ha against TRZAS in % [9]: 20%

Source: patent US20260138958A1, “SUBSTITUTED N-PHENYLURACILS AND SALTS THEREOF, AND USE THEREOF AS HERBICIDAL ACTIVE SUBSTANCES” (Bayer Aktiengesellschaft, priority 2022, published 2026)
